The target in experiment [1] is T1, GK-GKRP (Homo sapiens, UniProt Q14397).
T1 sequence (Q14397 1-625): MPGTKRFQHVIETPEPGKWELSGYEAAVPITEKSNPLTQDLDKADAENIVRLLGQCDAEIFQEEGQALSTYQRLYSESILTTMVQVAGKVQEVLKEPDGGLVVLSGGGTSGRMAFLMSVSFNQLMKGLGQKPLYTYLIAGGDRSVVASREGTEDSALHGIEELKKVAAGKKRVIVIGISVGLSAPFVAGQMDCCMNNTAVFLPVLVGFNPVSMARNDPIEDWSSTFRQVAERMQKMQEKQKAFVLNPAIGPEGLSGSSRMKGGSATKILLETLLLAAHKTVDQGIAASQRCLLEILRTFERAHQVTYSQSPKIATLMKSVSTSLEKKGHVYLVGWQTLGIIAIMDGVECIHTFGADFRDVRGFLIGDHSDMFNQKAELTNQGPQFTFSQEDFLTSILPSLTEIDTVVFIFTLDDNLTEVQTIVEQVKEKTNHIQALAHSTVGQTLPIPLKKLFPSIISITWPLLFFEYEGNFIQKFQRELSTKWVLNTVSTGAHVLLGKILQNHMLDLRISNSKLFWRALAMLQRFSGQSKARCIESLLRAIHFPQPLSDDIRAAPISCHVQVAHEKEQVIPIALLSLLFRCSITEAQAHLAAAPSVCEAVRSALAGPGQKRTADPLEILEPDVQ
Description: biochemical.

In experiment [2] the target is T1, GK-GKRP. Description: biochemical. The conditions noted are these: GK-GKRP IC50 (Binding).

Consider 10 compounds from patent US8431563B2 (priority 2010, dated 2013).

In general, EC50 refers to the concentration at which the effect is half-maximal. A higher EC50 goes with a less potent agent. As a reminder, the IC50 is the concentration that gives 50% inhibition. A low value points to higher potency.

The compound `CCC(C)S(=O)(=O)NC[C@H]1CN(S(=O)(=O)c2cccs2)CCN1c1ccc(C(C)(O)C(F)(F)F)cc1` (stereo partly drawn) [Example 238, N-(((2S)-4-(2-thiophenylsulfonyl)-1-(4-(2,2,2-trifluoro-1-hydroxy-1-methylethyl)phenyl)-2-piperazinyl)methyl)-2-butanesulfonamide] showed an EC50 in experiment [1] of 270 nM. This compound also came in with a concentration for half-maximal inhibition (IC50) in experiment [2] of 204 nM.

Take `CC1(C)C(=O)NCCN1C[C@H]1CN(S(=O)(=O)c2ccc(N)nc2)CCN1c1ncc(C(O)(C(F)(F)F)C(F)(F)F)cn1` [Example 235, 4-(((2S)-4-((6-amino-3-pyridinyl)sulfonyl)-1-(5-(2,2,2-trifluoro-1-hydroxy-1-(trifluoromethyl)ethyl)-2-pyrimidinyl)-2-piperazinyl)methyl)-3,3-dimethyl-2-piperazinone]: the EC50 in experiment [1] turned out to be 13 nM. Further, the IC50 in experiment [2] was 8 nM.

Compound `CC(O)(c1ccc(N2CCN(S(=O)(=O)c3cccs3)C[C@@H]2CN2C(=O)NC(=O)C23CCC3)cc1)C(F)(F)F` (mixture of isomers) [Example 236, 5-(((2S)-4-(2-thiophenylsulfonyl)-1-(4-(2,2,2-trifluoro-1-hydroxy-1-methylethyl)phenyl)-2-piperazinyl)methyl)-5,7-diazaspiro[3.4]octane-6,8-dione] displayed an EC50 in experiment [1] of 363 nM. In experiment [2], this compound came in with a half-maximal inhibitory concentration (IC50) of 379 nM.

The compound `Nc1ccc(S(=O)(=O)N2CCN(c3ncc(C(O)(C(F)(F)F)C(F)(F)F)cn3)C(C#CC3CC3)C2)cn1` (stereo not shown) [Example 246, 2-(2-(4-((6-amino-3-pyridinyl)sulfonyl)-2-(cyclopropylethynyl)-1-piperazinyl)-5-pyrimidinyl)-1,1,1,3,3,3-hexafluoro-2-propanol] gave an EC50 in experiment [1] of 314 nM. In addition, the half-maximal inhibitory concentration (IC50) in experiment [2] turned out to be 191 nM.

Turning to `O=S(=O)(c1ccccc1)c1ccc(-c2ncc(C(O)(C(F)(F)F)C(F)(F)F)cn2)cc1` [Example 263, 1,1,1,3,3,3-hexafluoro-2-(2-(4-(phenylsulfonyl)phenyl)-5-pyrimidinyl)-2-propanol], in experiment [1], it took 478 nM to reach a half-maximal effect (EC50). This compound also yielded an IC50 in experiment [2] of 484 nM.

For the compound `Cc1cc(S(=O)(=O)c2ccc(N)nc2)ccc1-c1ncc(C(O)(C(F)(F)F)C(F)(F)F)cn1` [Example 268, 2-(2-(4-((6-amino-3-pyridinyl)sulfonyl)-2-methylphenyl)-5-pyrimidinyl)-1,1,1,3,3,3-hexafluoro-2-propanol], the response in experiment [1] was half-maximal at 232 nM (EC50). In experiment [2], this compound yielded an IC50 of 103 nM.

`CC(C)N1C(=O)N(C[C@H]2CN(S(=O)(=O)c3cccs3)CCN2c2ccc(C(C)(O)C(F)(F)F)cc2)C(C)(C)C1=O` (mixture of isomers) [Example 242, 5,5-dimethyl-3-(1-methylethyl)-1-(((2S)-4-(2-thiophenylsulfonyl)-1-(4-(2,2,2-trifluoro-1-hydroxy-1-methylethyl)phenyl)-2-piperazinyl)methyl)-2,4-imidazolidinedione] came in with an EC50 in experiment [1] of 29 nM. The IC50 in experiment [2] came to 19 nM.

Consider `CC(C)S(=O)(=O)NC[C@H]1CN(S(=O)(=O)c2cccs2)CCN1c1ccc(C(C)(O)C(F)(F)F)cc1` (mixture of isomers) [Example 237, N-(((2S)-4-(thiophen-2-ylsulfonyl)-1-(4-(1,1,1-trifluoro-2-hydroxypropan-2-yl)phenyl)piperazin-2-yl)methyl)propane-2-sulfonamide], for which, in experiment [1], the EC50 came to 632 nM. The compound further registered an IC50 in experiment [2] of 335 nM.

Consider `Nc1ccc(S(=O)(=O)c2ccc(-c3ncc(C(O)(C(F)(F)F)C(F)(F)F)cn3)cn2)cn1` [Example 267, 2-(2-(6-((6-amino-3-pyridinyl)sulfonyl)-3-pyridinyl)-5-pyrimidinyl)-1,1,1,3,3,3-hexafluoro-2-propanol], for which it took 113 nM to reach a half-maximal effect in experiment [1] (EC50). Further, in experiment [2], the IC50 stood at 103 nM.

In experiment [2], `CC(O)(c1ccc(N2CCN(S(=O)(=O)c3cccs3)C[C@@H]2CN(c2ccc(F)cc2)S(C)(=O)=O)cc1)C(F)(F)F` (mixture of isomers) [Example 255, N-(4-fluorophenyl)-N-(((2R)-4-(2-thiophenylsulfonyl)-1-(4-(2,2,2-trifluoro-1-hydroxy-1-methylethyl)phenyl)-2-piperazinyl)methyl)methanesulfonamide] registered an IC50 of 2 nM.
